Source: ChEMBL document CHEMBL1127426, “Androgen receptor affinity of 5'-acyl furanosteroids” (1994)

These compounds were tested against T1, Androgen receptor (Rattus norvegicus) (UniProt P15207) (assay: Effective dose required to inhibit testosterone propionate-stimulated prostate weight gain by 50% […].). Details: Prostate gland.
T1 sequence (whole entry): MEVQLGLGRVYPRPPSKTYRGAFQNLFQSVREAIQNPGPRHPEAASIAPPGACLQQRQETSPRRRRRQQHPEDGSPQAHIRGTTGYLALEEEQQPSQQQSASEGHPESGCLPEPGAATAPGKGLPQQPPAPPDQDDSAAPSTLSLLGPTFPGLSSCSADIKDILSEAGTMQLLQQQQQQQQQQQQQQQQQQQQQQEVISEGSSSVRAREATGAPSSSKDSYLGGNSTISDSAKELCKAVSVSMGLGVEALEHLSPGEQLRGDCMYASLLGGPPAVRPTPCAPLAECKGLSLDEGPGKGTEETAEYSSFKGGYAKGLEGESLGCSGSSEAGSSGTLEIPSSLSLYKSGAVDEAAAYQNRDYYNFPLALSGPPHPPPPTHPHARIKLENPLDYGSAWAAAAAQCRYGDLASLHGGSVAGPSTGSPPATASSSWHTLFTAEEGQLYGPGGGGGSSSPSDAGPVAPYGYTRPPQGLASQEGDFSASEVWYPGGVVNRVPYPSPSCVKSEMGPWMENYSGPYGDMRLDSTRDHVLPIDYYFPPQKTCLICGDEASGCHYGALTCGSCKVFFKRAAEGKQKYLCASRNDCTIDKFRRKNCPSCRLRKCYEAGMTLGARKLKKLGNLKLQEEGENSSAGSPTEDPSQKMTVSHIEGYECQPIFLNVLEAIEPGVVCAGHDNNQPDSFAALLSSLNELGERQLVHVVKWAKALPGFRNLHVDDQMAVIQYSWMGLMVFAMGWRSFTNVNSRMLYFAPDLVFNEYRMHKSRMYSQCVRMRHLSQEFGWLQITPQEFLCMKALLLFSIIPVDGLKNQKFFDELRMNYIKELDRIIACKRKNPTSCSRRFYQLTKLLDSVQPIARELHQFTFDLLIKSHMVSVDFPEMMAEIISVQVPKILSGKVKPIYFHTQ
Format: tissue-based

SMILES | ED50 [mg/kg]
C[C@]12CCC3C(CC[C@H]4Cc5oc(C(=O)C6CC6)cc5C[C@]34C)C1CC[C@@H]2O (stereo partly specified) | 100
CC(=O)c1cc2cc3c(cc2o1)CC[C@@H]1[C@@H]3CC[C@]2(C)[C@@H](O)CC[C@@H]12 | 100
C[C@]12CCC3C(CC[C@H]4Cc5oc(C(=O)c6ccccc6)cc5C[C@]34C)C1CC[C@@H]2O (stereo partly specified) | > 100
C#C[C@]1(O)CCC2C3CC[C@H]4Cc5oc(C(C)=O)cc5C[C@@H]4C3CC[C@@]21C (stereo partly specified) | 100
CCCC(=O)c1cc2c(o1)C[C@@H]1CCC3C4CC[C@H](O)[C@@]4(C)CCC3[C@@]1(C)C2 (stereo partly specified) | > 75
CCC(=O)c1cc2c(o1)C[C@@H]1CCC3C4CC[C@H](O)[C@@]4(C)CCC3[C@@]1(C)C2 (stereo partly specified) | 33
C[C@]12CCC3C(CC[C@H]4Cc5oc(C=O)cc5C[C@]34C)C1CC[C@@H]2O (stereo partly specified) | > 100
C[C@]12CCC3C(CC[C@H]4Cc5occc5C[C@]34C)C1CC[C@@H]2O (stereo partly specified) | > 100
CC1(C(=O)c2cc3c(o2)C[C@@H]2CCC4C5CC[C@H](O)[C@@]5(C)CCC4[C@@]2(C)C3)CC1 (stereo partly specified) | > 100
C[C@]12CCC3C(CC[C@H]4Cc5oc(C=O)cc5C[C@H]34)C1CC[C@@H]2O (stereo partly specified) | > 100
C[C@]12CCC3C(CC[C@H]4Cc5oc(C(=O)O)cc5C[C@]34C)C1CC[C@@H]2O (stereo partly specified) | > 100
C#C[C@]1(O)CCC2C3CC[C@H]4Cc5oc(C(=O)O)cc5C[C@]4(C)C3CC[C@@]21C (stereo partly specified) | > 100
C#C[C@]1(O)CCC2C3CC[C@H]4Cc5oc(C(N)=O)cc5C[C@]4(C)C3CC[C@@]21C (stereo partly specified) | 56
C#C[C@]1(O)CCC2C3CC[C@H]4Cc5oc(C(=O)OC)cc5C[C@]4(C)C3CC[C@@]21C (stereo partly specified) | > 50
C#C[C@]1(O)CCC2C3CC[C@H]4Cc5oc(C=O)cc5C[C@]4(C)C3CC[C@@]21C (stereo partly specified) | 100
C#C[C@]1(O)CCC2C3CC[C@H]4Cc5oc(C(=O)CC)cc5C[C@]4(C)C3CC[C@@]21C (stereo partly specified) | 30
C#C[C@]1(O)CCC2C3CC[C@H]4Cc5oc(C(C)=O)cc5C[C@]4(C)C3CC[C@@]21C (stereo partly specified) | > 100
COC(=O)c1cc2c(o1)C[C@@H]1CCC3C4CC[C@H](O)[C@@]4(C)CCC3[C@@]1(C)C2 (stereo partly specified) | > 100
CC(C)(C)C(=O)c1cc2c(o1)C[C@@H]1CCC3C4CC[C@H](O)[C@@]4(C)CCC3[C@@]1(C)C2 (stereo partly specified) | > 100

Organism: Rattus norvegicus
Experiment: Effective dose required for the compound to inhibit testosterone propionate-stimulated prostate weight gain by 50% […].
Format: functional
Details: Prostate gland

SMILES | ED50 [mg/kg]
COc1ccc(C(=O)c2cc3c(o2)C[C@@H]2CCC4C5CC[C@H](O)[C@@]5(C)CCC4[C@@]2(C)C3)cc1 (stereo partly specified) | > 100

What follows are compounds tested against T1, Androgen receptor (Rattus norvegicus). Details: Prostate gland; filed as agonist.

SMILES | ED50
CC(=O)c1cc2c(o1)C[C@@H]1CCC3C4CC[C@H](O)[C@@]4(C)CCC3[C@@]1(C)C2 (stereo partly specified) | Agonist
C=C[C@]1(O)CCC2C3CC[C@H]4Cc5oc(C(C)=O)cc5C[C@]4(C)C3CC[C@@]21C (stereo partly specified) | Agonist
CC(C)C(=O)c1cc2c(o1)C[C@@H]1CCC3C4CC[C@H](O)[C@@]4(C)CCC3[C@@]1(C)C2 (stereo partly specified) | Agonist
C#C[C@]1(O)CCC2C3CC[C@H]4Cc5oc(C(=O)C(Cl)(Cl)Cl)cc5C[C@]4(C)C3CC[C@@]21C (stereo partly specified) | Agonist
C#C[C@]1(O)CCC2C3CC[C@H]4Cc5oc(C(=O)C(F)(F)F)cc5C[C@]4(C)C3CC[C@@]21C (stereo partly specified) | Agonist
CC(=O)c1cc2c(o1)C[C@@H]1CCC3C(CC[C@@]4(C)C3CC[C@@H]4O)[C@H]1C2 (stereo partly specified) | Agonist
CC[C@]1(O)CCC2C3CC[C@H]4Cc5oc(C(C)=O)cc5C[C@]4(C)C3CC[C@@]21C (stereo partly specified) | Agonist
C#C[C@]1(O)CCC2C3CC[C@H]4Cc5oc(C(=O)C6CC6)cc5C[C@]4(C)C3CC[C@@]21C (stereo partly specified) | Agonist
C[C@]12CCC3C(CC[C@H]4Cc5oc(C(=O)C(F)(F)F)cc5C[C@]34C)C1CC[C@@H]2O (stereo partly specified) | Agonist
C[C@]12CCC3C(CC[C@H]4Cc5oc(C(=O)C6CCC6)cc5C[C@]34C)C1CC[C@@H]2O (stereo partly specified) | Agonist
C#C[C@]1(O)CCC2C3CC[C@H]4Cc5oc(C(=O)C(C)C)cc5C[C@]4(C)C3CC[C@@]21C (stereo partly specified) | Agonist
